From patent US20110082130A1 (LIGAND PHARMACEUTICALS, INC., priority 2006, published 2011) come the findings set out here.

One assay deals with T1, chimeric human H3 receptor (Homo sapiens, UniProt Q9Y5N1).
T1 construct: made in house; host or cells: Sf9 insect cells (baculovirus); P2 membrane preparation
T1 sequence (Q9Y5N1 with tags, fused parts or gaps): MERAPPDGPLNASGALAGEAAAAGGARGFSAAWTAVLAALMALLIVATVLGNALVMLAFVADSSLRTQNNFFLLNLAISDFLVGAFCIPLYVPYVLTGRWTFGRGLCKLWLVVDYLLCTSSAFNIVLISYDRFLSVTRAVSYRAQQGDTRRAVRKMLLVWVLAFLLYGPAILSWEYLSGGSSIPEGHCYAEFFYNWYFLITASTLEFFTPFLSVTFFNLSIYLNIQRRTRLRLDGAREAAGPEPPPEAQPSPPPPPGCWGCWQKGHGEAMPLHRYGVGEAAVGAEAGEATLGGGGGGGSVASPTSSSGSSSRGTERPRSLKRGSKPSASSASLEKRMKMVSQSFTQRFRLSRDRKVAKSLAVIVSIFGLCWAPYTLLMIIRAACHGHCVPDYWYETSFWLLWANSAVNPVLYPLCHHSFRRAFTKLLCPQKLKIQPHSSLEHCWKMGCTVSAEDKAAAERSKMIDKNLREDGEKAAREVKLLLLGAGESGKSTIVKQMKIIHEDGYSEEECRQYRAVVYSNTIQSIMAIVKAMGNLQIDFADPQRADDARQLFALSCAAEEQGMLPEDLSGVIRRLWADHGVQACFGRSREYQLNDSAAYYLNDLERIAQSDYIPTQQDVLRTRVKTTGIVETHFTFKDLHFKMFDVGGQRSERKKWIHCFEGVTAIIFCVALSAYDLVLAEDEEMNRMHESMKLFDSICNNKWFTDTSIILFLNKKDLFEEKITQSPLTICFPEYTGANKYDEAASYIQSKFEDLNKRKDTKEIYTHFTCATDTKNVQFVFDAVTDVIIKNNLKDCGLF
Description: Chimeric human H3 receptor GTP binding assay (agonist-stimulated GTP-gamma35S binding, Example 7). The class given is biochemical. The settings on record: Table I; P2 membranes of Sf9 cells, 1 μM histamine as agonist, Ki from IC50 by Cheng-Prusoff. The method in brief:
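Sf9 membranes co-expressing chimeric human H3 receptor and heterotrimeric G-protein, 35 μg/tube, in pH 7.4 Tris buffer with 10 μM GDP. Test compounds (10^−10–10^−6 M) competed against 1 μM histamine, […] GTP-gamma35S, 60 min at room temperature. Filter-bound radioactivity counted; IC50 converted to Ki by Cheng-Prusoff. Agonism/inverse agonism tested without histamine (EC50).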
Take `CC(C)N1CCN(C(=O)CN2CCc3ccccc3C2c2ccccc2)CC1` (centres unmarked) [Compound 52, 2-[2-(4-isopropylpiperazin-1-yl)-2-oxoethyl]-1-phenyl-1,2,3,4-tetrahydroisoquinoline]: the Ki is under 1000 nM. As for `CNC(=O)c1ccc2c(c1)CN(CC(=O)N1CCN(C3CCC3)CC1)CC2` [Compound 66, 2-[2-(4-cyclobutylpiperazin-1-yl)-2-oxoethyl]-N-methyl-1,2,3,4-tetrahydroisoquinoline-7-carboxamide], the Ki is under 1000 nM.

In the case of `O=C(CN1CCc2cc(Br)ccc2C1c1ccccc1Cl)N1CCN(C2CCC2)CC1` (centres unmarked) [Compound 63, 6-bromo-1-(2-chlorophenyl)-2-[2-(4-cyclobutylpiperazin-1-yl)-2-oxoethyl]-1,2,3,4-tetrahydroisoquinoline], the Ki is under 1000 nM.

Staying with this assay, now noted: Table II "Ki", symbol *; assay of Example 7.
Regarding `COc1ccc(-c2ccc3c(c2)CCN(CC(=O)N2CCN(C4CCCC4)CC2)C3)cc1C` [Compound 541, 2-[2-(4-cyclopentylpiperazin-1-yl)-2-oxoethyl]-6-(4-methoxy-3-methylphenyl)-1,2,3,4-tetrahydroisoquinoline], the Ki is under 1000 nM. Regarding `CCOc1ccc(-c2ccc3c(c2)CCN(CC(=O)N2CCN(C4CCC4)CC2)C3)cc1` [Compound 528, 2-[2-(4-cyclobutylpiperazin-1-yl)-2-oxoethyl]-6-(4-ethoxyphenyl)-1,2,3,4-tetrahydroisoquinoline], the Ki is under 1000 nM. As for `CN(C)CCc1cccc(-c2ccc3c(c2)CCN(CC(=O)N2CCN(C4CCC4)CC2)C3)c1` [Compound 644, 2-(3-{2-[2-(4-cyclobutylpiperazin-1-yl)-2-oxoethyl]-1,2,3,4-tetrahydroisoquinolin-6-yl}phenyl)-N,N-dimethylethanamine], the Ki was under 1000 nM. The same measure, in the same setting: in the case of `CCC(C)Nc1ccc2c(n1)CCN(CC(=O)N1CCN(C3CCC3)CC1)C2` (centres unmarked) [Compound 655, N-sec-butyl-6-[2-(4-cyclobutylpiperazin-1-yl)-2-oxoethyl]-5,6,7,8-tetrahydro-1,6-naphthyridin-2-amine] it was under 1000 nM; in that of `CC(C)c1ccc(-c2ccc3c(c2)CCN(CC(=O)N2CCN(C4CCC4)CC2)C3)cn1` [Compound 649, 2-[2-(4-cyclobutylpiperazin-1-yl)-2-oxoethyl]-6-(6-isopropylpyridin-3-yl)-1,2,3,4-tetrahydroisoquinoline], under 1000 nM. Same read-out and setting: with `COc1ccc(-c2ccc3c(c2)CCN(CC(=O)N2CCN(C(C)C)CC2)C3)cc1OC` [Compound 527, 6-(3,4-dimethoxyphenyl)-2-[2-(4-isopropylpiperazin-1-yl)-2-oxoethyl]-1,2,3,4-tetrahydroisoquinoline] the figure was under 1000 nM. Still for that read-out and setting: in the case of `N#CCC1CCN(c2ccc3c(n2)CCN(CC(=O)N2CCN(C4CCC4)CC2)C3)CC1` [Compound 675, (1-{6-[2-(4-cyclobutylpiperazin-1-yl)-2-oxoethyl]-5,6,7,8-tetrahydro-1,6-naphthyridin-2-yl}piperidin-4-yl)acetonitrile] it was under 1000 nM; in that of `CN(C)Cc1ccc(-c2ccc3c(c2)CCN(CC(=O)N2CCN(C4CCC4)CC2)C3)cc1` [Compound 642, 1-(4-{2-[2-(4-cyclobutylpiperazin-1-yl)-2-oxoethyl]-1,2,3,4-tetrahydroisoquinolin-6-yl}phenyl)-N,N-dimethylmethanamine], under 1000 nM; in that of `C[C@H]1CN(C(=O)CN2CCc3cc(-c4cncnc4)ccc3C2)CCN1C1CCCCC1` [Compound 616, 2-{2-[(3S)-4-cyclohexyl-3-methylpiperazin-1-yl]-2-oxoethyl}-6-pyrimidin-5-yl-1,2,3,4-tetrahydroisoquinoline], under 1000 nM.

The same assay, now with this note: Table II; "*" = Ki in assay of Example 7 less than 1 micromolar.
With `Cn1cc(-n2ncc3c2CCN(CC(=O)N2CCN(C4CCC4)CC2)C3)ccc1=O` [Compound 263, 5-{5-[2-(4-cyclobutylpiperazin-1-yl)-2-oxoethyl]-4,5,6,7-tetrahydro-1H-pyrazolo[4,3-c]pyridin-1-yl}-1-methytpyridin-2(1H)-one], the Ki is under 1000 nM. Turning to `O=C(NC1CCCC1)c1ccc2c(c1)CCN(CC(=O)N1CCN(C3CCC3)CC1)C2` [Compound 88, 2-[2-(4-cyclobutylpiperazin-1-yl)-2-oxoethyl]-N-cyclopentyl-1,2,3,4-tetrahydroisoquinoline-6-carboxamide], the Ki is under 1000 nM. In the case of `COCCN(C)c1ccc2c(n1)CCN(CC(=O)N1CCN3C(C)CCC[C@H]3C1)C2` (stereo in doubt) [Compound 181, N-(2-methoxyethyl)-N-methyl-6-[2-(6-methyloctahydro-2H-pyrido[1,2-a]pyrazin-2-yl)-2-oxoethyl]-5,6,7,8-tetrahydro-1,6-naphthyridin-2-amine], the Ki is under 1000 nM.

On to `CC(=O)c1ccc(-n2ncc3c2CCN(CC(=O)N2CCN(C4CCC4)CC2)C3)nn1` [Compound 216, 1-(6-{5-[2-(4-cyclobutylpiperazin-1-yl)-2-oxoethyl]-4,5,6,7-tetrahydro-1H-pyrazolo[4,3-c]pyridin-1-yl}pyridazin-3-yl)ethanone], for which the Ki was under 1000 nM.

Consider `CCC1CCC[C@H]2CN(C(=O)CN3CCc4cc(-c5cncnc5)ccc4C3)CCN12` (stereo in doubt) [Compound 160, 6-ethyl-2-[(6-pyrimidin-5-yl-3,4-dihydroisoquinolin-2(1H)-yl)acetyl]octahydro-2H-pyrido[1,2-a]pyrazine], for which the Ki was under 1000 nM.

`COc1ccc(-c2ccc3c(c2)CCN(CC(=O)N2CCN(C4CCC4)CC2)C3)cn1` [Compound 95, 2-[2-(4-cyclobutylpiperazin-1-yl)-2-oxoethyl]-6-(6-methoxypyridin-3-yl)-1,2,3,4-tetrahydroisoquinoline]: the inhibitory constant (Ki) was under 1000 nM. On the same count and under the same terms, in the case of `O=C(CN1CCc2cc(-c3cccnn3)ccc2C1)N1CCN(C2CCC2)CC1` [Compound 129, 2-[2-(4-cyclobutylpiperazin-1-yl)-2-oxoethyl]-6-pyridazin-3-yl-1,2,3,4-tetrahydroisoquinoline] it was under 1000 nM; in that of `O=C(CN1CCc2n[nH]cc2C1)N1CCN(C2CCC2)CC1` [Compound 91, 5-[2-(4-cyclobutylpiperazin-1-yl)-2-oxoethyl]-4,5,6,7-tetrahydro-2H-pyrazolo[4,3-c]pyridine], under 1000 nM; in that of `O=C(CN1CCc2nc(C3CC3)ncc2C1)N1CCN(C2CCC2)CC1` [Compound 276, 6-[2-(4-cyclobutylpiperazin-1-yl)-2-oxoethyl]-2-cyclopropyl-5,6,7,8-tetrahydropyrido[4,3-d]pyrimidine], under 1000 nM. Take `COc1ncc(-n2ncc3c2CCN(CC(=O)N2CCN(C4CCC4)CC2)C3)cn1` [Compound 257, 5-[2-(4-cyclobutylpiperazin-1-yl)-2-oxoethyl]-1-(2-methoxypyrimidin-5-yl)-4,5,6,7-tetrahydro-1H-pyrazolo[4,3-c]pyridine]: the Ki was under 1000 nM. Consider `CC(O)c1ccc2c(c1)CCN(CC(=O)N1CCN(C3CCC3)CC1)C2` (centres unmarked) [Compound 219, 1-{2-[2-(4-cyclobutylpiperazin-1-yl)-2-oxoethyl]-1,2,3,4-tetrahydroisoquinolin-6-yl}ethanol], for which the Ki was under 1000 nM.

Still in this assay, the particulars now being: assay of Example 7; "*" in Ki of Table II.
On to `COc1ccc(C)cc1-c1nc2c(s1)CN(CC(=O)N1CCN(C3CCC3)CC1)CC2` [Compound 344, 5-[2-(4-cyclobutylpiperazin-1-yl)-2-oxoethyl]-2-(2-methoxy-5-methylphenyl)-4,5,6,7-tetrahydro[1,3]thiazolo [5,4-c]pyridine], for which the Ki is under 1000 nM. On to `O=C(CN1CCc2cc(-c3ccc4c(c3)OCCO4)ccc2C1)N1CCN(C2CCC2)CC1` [Compound 380, 2-[2-(4-cyclobutylpiperazin-1-yl)-2-oxoethyl]-6-(2,3-dihydro-1,4-benzodioxin-6-yl)-1,2,3,4-tetrahydroisoquinoline], for which the Ki was under 1000 nM.

As for `CC(C)(C)c1ccc(-c2nc3c(s2)CN(CC(=O)N2CCN(C4CCC4)CC2)CC3)cc1` [Compound 314, 2-(4-tert-butylphenyl)-5-[2-(4-cyclobutylpiperazin-1-yl)-2-oxoethyl]-4,5,6,7-tetrahydro[1,3]thiazolo [5,4-c]pyridine], the Ki was under 1000 nM.

For the compound `CC(C)N1CCN(C(=O)CN2CCc3cc(-c4cncnc4)ccc3C2)CC1` [Compound 387, 2-[2-(4-isopropylpiperazin-1-yl)-2-oxoethyl]-6-pyrimidin-5-yl-1,2,3,4-tetrahydroisoquinoline], the Ki was under 1000 nM. Still for that read-out and setting: with `CCOc1cccc(-c2nc3c(s2)CN(CC(=O)N2CCN(C4CCC4)CC2)CC3)c1` [Compound 317, 5-[2-(4-cyclobutylpiperazin-1-yl)-2-oxoethyl]-2-(3-ethoxyphenyl)-4,5,6,7-tetrahydro[1,3]thiazolo [5,4-c]pyridine] the figure was under 1000 nM. Still for that read-out and setting: with `O=C(CN1CCc2nc(-c3c(F)cccc3F)sc2C1)N1CCN(C2CCC2)CC1` [Compound 353, 5-[2-(4-cyclobutylpiperazin-1-yl)-2-oxoethyl]-2-(2,6-difluorophenyl)-4,5,6,7-tetrahydro[1,3]thiazolo [5,4-c]pyridine] the figure was under 1000 nM. Still for that read-out and setting: with `O=C(CN1CCc2nc(-c3cccc(C(F)(F)F)c3)sc2C1)N1CCN(C2CCC2)CC1` [Compound 372, 5-[2-(4-cyclobutylpiperazin-1-yl)-2-oxoethyl]-2-[3-(trifluoromethyl)phenyl]-4,5,6,7-tetrahydro[1,3]thiazolo [5,4-c]pyridine] the figure was under 1000 nM. Consider `CC(C)n1cc(-c2ccc3c(c2)CCN(CC(=O)N2CCN(C4CCC4)CC2)C3)ccc1=O` [Compound 282, 5-{2-[2-(4-cyclobutylpiperazin-1-yl)-2-oxoethyl]-1,2,3,4-tetrahydroisoquinolin-6-yl}-1-isopropylpyridin-2(1H)-one], for which the Ki was under 1000 nM. Take `O=C(CN1CCc2nc(-c3cccc(F)c3)sc2C1)N1CCN(C2CCC2)CC1` [Compound 298, 5-[2-(4-cyclobutylpiperazin-1-yl)-2-oxoethyl]-2-(3-fluorophenyl)-4,5,6,7-tetrahydro[1,3]thiazolo [5,4-c]pyridine]: the Ki is under 1000 nM.
